This is an account of results in paper PMC3840065, “Structural Insights into the Mechanism for Recognizing Substrate of the Cytochrome P450 Enzyme TxtE” (PLoS ONE, 2013).

A word on the Kd: it is the equilibrium constant for the complex coming apart.

Holding throughout (experiment): UV-vis difference titration (type I shift, […] nm)
Format in all cases: binding

For experiment [1], the target named is T1, TxtE (Streptomyces scabiei, UniProt C9ZDC6, N293L).
T1 construct: full length, 406 residues, pET-28a, N-terminal His-tag with thrombin site (tag kept), E. coli Rosetta(DE3) pLysS, monomer in solution

For experiment [2], the target named is T2, TxtE (Streptomyces scabiei, UniProt C9ZDC6).
T2 construct: full length, 406 residues, pET-28a, N-terminal His-tag with thrombin site (tag kept), E. coli Rosetta(DE3) pLysS, monomer in solution

Experiment [3] has as its target T3, TxtE (Streptomyces scabiei, UniProt C9ZDC6, Y89F).
T3 construct: full length, 406 residues, pET-28a, N-terminal His-tag with thrombin site (tag kept), E. coli Rosetta(DE3) pLysS, monomer in solution

T3 sequence (C9ZDC6 whole entry Y89F): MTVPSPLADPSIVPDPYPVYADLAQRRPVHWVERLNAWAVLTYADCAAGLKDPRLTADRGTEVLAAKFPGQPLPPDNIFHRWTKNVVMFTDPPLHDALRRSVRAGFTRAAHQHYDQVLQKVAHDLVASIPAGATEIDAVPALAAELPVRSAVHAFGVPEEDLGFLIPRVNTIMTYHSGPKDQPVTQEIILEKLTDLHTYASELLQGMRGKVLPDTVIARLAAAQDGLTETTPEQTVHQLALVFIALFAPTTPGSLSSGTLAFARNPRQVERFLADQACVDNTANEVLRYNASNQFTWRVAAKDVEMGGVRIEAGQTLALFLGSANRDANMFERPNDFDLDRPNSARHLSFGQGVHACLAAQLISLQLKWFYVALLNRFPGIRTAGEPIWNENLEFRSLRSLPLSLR
T2 sequence (C9ZDC6 entry or part of it): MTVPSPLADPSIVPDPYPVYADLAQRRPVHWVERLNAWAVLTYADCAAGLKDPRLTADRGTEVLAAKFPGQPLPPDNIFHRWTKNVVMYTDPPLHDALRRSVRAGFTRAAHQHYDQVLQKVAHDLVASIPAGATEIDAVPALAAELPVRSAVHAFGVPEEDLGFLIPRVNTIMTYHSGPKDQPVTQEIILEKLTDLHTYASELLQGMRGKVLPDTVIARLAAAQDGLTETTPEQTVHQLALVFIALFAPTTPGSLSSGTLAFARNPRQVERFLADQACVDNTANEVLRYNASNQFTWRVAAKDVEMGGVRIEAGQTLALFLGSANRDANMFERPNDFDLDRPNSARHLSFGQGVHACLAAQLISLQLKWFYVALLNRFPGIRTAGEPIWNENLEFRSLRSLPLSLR
T1 sequence (C9ZDC6 whole entry N293L): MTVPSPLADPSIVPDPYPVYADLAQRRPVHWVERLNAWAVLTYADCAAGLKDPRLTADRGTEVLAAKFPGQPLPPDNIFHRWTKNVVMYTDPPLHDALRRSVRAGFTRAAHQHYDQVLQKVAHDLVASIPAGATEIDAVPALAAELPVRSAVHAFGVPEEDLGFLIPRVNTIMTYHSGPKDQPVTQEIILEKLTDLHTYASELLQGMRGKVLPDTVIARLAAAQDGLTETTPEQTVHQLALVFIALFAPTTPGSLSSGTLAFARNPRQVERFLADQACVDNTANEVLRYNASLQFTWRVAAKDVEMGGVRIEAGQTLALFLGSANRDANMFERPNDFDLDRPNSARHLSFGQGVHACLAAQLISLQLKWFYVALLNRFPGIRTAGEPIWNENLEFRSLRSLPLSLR

On to `N[C@@H](Cc1c[nH]c2ccccc12)C(=O)O` [L-tryptophan], for which the Kd was 1700 ± 280 µM at TxtE [1], 43.6 ± 2.26 µM at TxtE [2] and 121 ± 4.3 µM at TxtE [3].
